{"source": "patent US4431804A", "about": "“Thiazolylacetamido compounds” (Hoffmann-La Roche Inc., priority 1981, dated 1984)", "key": {"Pseudomonas aeruginosa": {"test_system": "Pseudomonas aeruginosa", "test": "in vitro activity against 15 strains of Pseudomonas aeruginosa (minimum inhibitory concentration)", "assay_type": "cell-based", "from_the_text": "Results (as MIC=minimum inhibitory concentration in μg/ml): […]"}, "Toxicity (LD50)": {"test": "Toxicity (LD50)", "conditions": "in vivo", "from_the_text": "Toxicity of the trisodium salt of (6R,7R)-7-[(Z)-2-(2-amino-4-[…])-2-[(1-carboxy-1-methylethoxy)imino]acetamido]-3-[[(2,5-dihydro-6-hydroxy-2-methyl-5-oxo-as-triazin-3-yl)thio]methyl]-8-oxo-5-thia-1-azabicyclo[4.2.0]oct-2-ene-2-carboxylic acid: […]"}}, "note": "Structures can show the parent of a compound that is named as a salt."}
{"smiles": "Cn1nc(O)c(=O)nc1SCC1=C(C(=O)O)N2C(=O)[C@@H](NC(=O)/C(=N\\OC(C)(C)C(=O)O)c3csc(N)n3)[C@H]2SC1", "note": "[Example 1, trisodium salt of (6R,7R)-7-[(Z)-2-(2-amino-4-thiazolyl)-2-[(1-carboxy-1-methylethoxy)imino]acetamido]-3-[[(2,5-dihydro-6-hydroxy-2-methyl-5-oxo-as-triazin-3-yl)thio]methyl]-8-oxo-5-thia-1-azabicyclo[4.2.0]oct-2-ene-2-carboxylic acid]", "values": [{"measurement": "MIC", "setting": "Pseudomonas aeruginosa; P. aeruginosa strain 1, in vitro", "value": 6.3, "unit": "µg/mL"}, {"measurement": "MIC", "setting": "Pseudomonas aeruginosa; P. aeruginosa strain 2, in vitro", "value": 1.6, "unit": "µg/mL"}, {"measurement": "MIC", "setting": "Pseudomonas aeruginosa; P. aeruginosa strain 3, in vitro", "value": 1.6, "unit": "µg/mL"}, {"measurement": "MIC", "setting": "Pseudomonas aeruginosa; P. aeruginosa strain 4, in vitro", "value": 1.6, "unit": "µg/mL"}, {"measurement": "MIC", "setting": "Pseudomonas aeruginosa; P. aeruginosa strain 5, in vitro", "value": 1.6, "unit": "µg/mL"}, {"measurement": "MIC", "setting": "Pseudomonas aeruginosa; P. aeruginosa strain 6, in vitro", "value": 1.6, "unit": "µg/mL"}, {"measurement": "MIC", "setting": "Pseudomonas aeruginosa; P. aeruginosa strain 7, in vitro", "value": 1.6, "unit": "µg/mL"}, {"measurement": "MIC", "setting": "Pseudomonas aeruginosa; P. aeruginosa strain 8, in vitro", "value": 25, "unit": "µg/mL"}, {"measurement": "MIC", "setting": "Pseudomonas aeruginosa; P. aeruginosa strain 9, in vitro", "value": 3.1, "unit": "µg/mL"}, {"measurement": "MIC", "setting": "Pseudomonas aeruginosa; P. aeruginosa strain 10, in vitro", "value": 1.6, "unit": "µg/mL"}, {"measurement": "MIC", "setting": "Pseudomonas aeruginosa; P. aeruginosa strain 11, in vitro", "value": 0.8, "unit": "µg/mL"}, {"measurement": "MIC", "setting": "Pseudomonas aeruginosa; P. aeruginosa strain 12, in vitro", "value": 1.6, "unit": "µg/mL"}, {"measurement": "MIC", "setting": "Pseudomonas aeruginosa; P. aeruginosa strain 13, in vitro", "value": 1.6, "unit": "µg/mL"}, {"measurement": "MIC", "setting": "Pseudomonas aeruginosa; P. aeruginosa strain 14, in vitro", "value": 1.6, "unit": "µg/mL"}, {"measurement": "MIC", "setting": "Pseudomonas aeruginosa; P. aeruginosa strain 15, in vitro", "value": 1.6, "unit": "µg/mL"}, {"measurement": "LD50", "setting": "Toxicity (LD50); iv", "value": "> 1000", "unit": "mg/kg"}, {"measurement": "LD50", "setting": "Toxicity (LD50); po", "value": "> 4000", "unit": "mg/kg"}, {"measurement": "LD50", "setting": "Toxicity (LD50); sc", "value": "> 4000", "unit": "mg/kg"}]}
